From paper PMC11406361, “Several orphan solute carriers functionally identified as organic cation transporters: Substrates specificity compared with known cation transporters” (The Journal of Biological Chemistry, 2024)

Key:
[1] = target: SLC38A10 (Homo sapiens, UniProt Q9HBR0); test: Uptake ratio screen, SLC38A10-overexpressing HEK293 over empty vector cells; type: cell-based; parameters: by amplifying the entire gene-of-interest within the HEK293 genome via a long-range PCR; conditions: 2.5 μM, 2 min
Method: (§1) Typically discussed substrates of the proton organic-cation antiporter ([14]) are highlighted in dark green in Figure 1.
In preparation for transport experiments, 24-well plates were pre-coated with poly-D-lysine (Sigma-Aldrich) and 300,000 cells were plated per well and incubated for 48 h. Firstly, the 24-well plate was placed on a heating plate at 37 °C, and the cells were washed with 37 °C HBSS^+ buffer (Hank’s balanced salt solution supplemented with 10 mM Hepes and adjusted to pH 7.4; Thermo Fisher Scientific). The substance-of-interest, which was diluted in 37 °C HBSS^+ to a desired concentration, was added to the cells for exactly 2 min. […] For variations in seeded cell numbers between the cell lines, several wells were lysed in RIPA buffer and used for total protein quantification using a bicinchoninic assay ([74]) and bovine serum albumin as calibration.
The intracellular drug concentrations after transport experiments were analyzed by high-performance liquid chromatography coupled to tandem mass spectrometry analysis. […] After separation, the detection of substances was performed with an API 4000 tandem mass spectrometer (AB SCIEX, https://sciex.com/support/software-support/software-downloads), followed by quantification of results with the Analyst software (AB SCIEX, version 1.6.2). […]

[2] = target: T1, SLC35E4 (Homo sapiens, UniProt Q6ICL7); test: Uptake ratio screen, SLC35E4-overexpressing HEK293 over empty vector cells; type: cell-based; parameters: by amplifying the entire gene-of-interest within the HEK293 genome via a long-range PCR; conditions: 2.5 μM, 2 min
T1 sequence (Q6ICL7 1-350): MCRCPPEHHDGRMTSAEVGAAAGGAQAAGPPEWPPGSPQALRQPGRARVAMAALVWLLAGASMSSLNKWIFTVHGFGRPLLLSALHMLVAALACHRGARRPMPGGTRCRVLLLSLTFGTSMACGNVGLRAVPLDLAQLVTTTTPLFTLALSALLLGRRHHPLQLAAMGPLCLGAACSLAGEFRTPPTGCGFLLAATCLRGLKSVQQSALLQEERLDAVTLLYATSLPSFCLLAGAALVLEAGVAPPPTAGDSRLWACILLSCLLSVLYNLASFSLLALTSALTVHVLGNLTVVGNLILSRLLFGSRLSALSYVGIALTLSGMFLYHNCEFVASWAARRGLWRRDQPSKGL
Method: as §1
(§2) In preparation for transport experiments, 24-well plates were pre-coated with poly-D-lysine (Sigma-Aldrich) and 300,000 cells were plated per well and incubated for 48 h. Firstly, the 24-well plate was placed on a heating plate at 37 °C, and the cells were washed with 37 °C HBSS^+ buffer (Hank’s balanced salt solution supplemented with 10 mM Hepes and adjusted to pH 7.4; Thermo Fisher Scientific). The substance-of-interest, which was diluted in 37 °C HBSS^+ to a desired concentration, was added to the cells for exactly 2 min. […] The uptake was stopped with ice-cold HBSS^+, and the 24-well plate was removed from the heating plate. The cells were washed twice with the cold HBSS^+ before they were lysed for 15 min with 80% (v/v) acetonitrile containing the respective internal standard for mass spectrometry. For variations in seeded cell numbers between the cell lines, several wells were lysed in RIPA buffer and used for total protein quantification using a bicinchoninic assay ([74]) and bovine serum albumin as calibration.
(§3) The intracellular drug concentrations after transport experiments were analyzed by high-performance liquid chromatography coupled to tandem mass spectrometry analysis. The HPLC consisted of a Shimadzu Nexera HPLC System with a SIL-30AC autosampler, a LC-30AD pump, a CTO-20AC column oven, and a CBM-20A controller (Shimadzu). The reverse-phase chromatography of compounds was accomplished with a Brownlee SPP RP-Amide column with 4.6 × 100 mm inner dimensions, a particle size of 2.7 μm, and a preceding Phenomenex C-18 guard column. […] After separation, the detection of substances was performed with an API 4000 tandem mass spectrometer (AB SCIEX, https://sciex.com/support/software-support/software-downloads), followed by quantification of results with the Analyst software (AB SCIEX, version 1.6.2). […]
(§4) Transport-mediated net uptake was determined as fold-increase of transporter-overexpressing cells over empty vector–transfected control cells.

[3] = target: T2, SLC35F5 (Homo sapiens, UniProt Q8WV83); test: Uptake ratio screen, SLC35F5-overexpressing HEK293 over empty vector cells; type: cell-based; parameters: by amplifying the entire gene-of-interest within the HEK293 genome via a long-range PCR; conditions: 2.5 μM, 2 min
T2 sequence (Q8WV83 1-523): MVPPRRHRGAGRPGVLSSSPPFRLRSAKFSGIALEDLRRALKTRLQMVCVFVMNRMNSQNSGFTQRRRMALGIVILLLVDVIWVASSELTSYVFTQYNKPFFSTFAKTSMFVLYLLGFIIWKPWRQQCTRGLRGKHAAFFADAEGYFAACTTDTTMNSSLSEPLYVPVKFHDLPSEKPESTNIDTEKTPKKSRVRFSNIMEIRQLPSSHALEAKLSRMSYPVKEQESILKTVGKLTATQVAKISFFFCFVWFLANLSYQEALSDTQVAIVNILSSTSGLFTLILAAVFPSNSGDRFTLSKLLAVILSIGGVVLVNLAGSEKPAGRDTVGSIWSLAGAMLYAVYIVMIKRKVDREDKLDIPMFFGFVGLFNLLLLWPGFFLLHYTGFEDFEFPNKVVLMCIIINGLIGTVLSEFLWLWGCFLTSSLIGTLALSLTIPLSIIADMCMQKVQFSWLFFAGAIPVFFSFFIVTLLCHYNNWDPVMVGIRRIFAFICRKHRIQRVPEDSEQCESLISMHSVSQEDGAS
Method: as §1, §2
(§5) The intracellular drug concentrations after transport experiments were analyzed by high-performance liquid chromatography coupled to tandem mass spectrometry analysis. The HPLC consisted of a Shimadzu Nexera HPLC System with a SIL-30AC autosampler, a LC-30AD pump, a CTO-20AC column oven, and a CBM-20A controller (Shimadzu). The reverse-phase chromatography of compounds was accomplished with a Brownlee SPP RP-Amide column with 4.6 × 100 mm inner dimensions, a particle size of 2.7 μm, and a preceding Phenomenex C-18 guard column. The mobile phase was composed of an organic additive with acetonitrile:methanol 6:1 (v/v) in total concentrations between 3% and 50% (v/v) and 0.1% (v/v) formic acid in the aqueous component of the eluent. During separation, the column oven was held at 40 °C and the mobile phase was maintained at a flow rate of 300 or 400 μl/min. After separation, the detection of substances was performed with an API 4000 tandem mass spectrometer (AB SCIEX, https://sciex.com/support/software-support/software-downloads), followed by quantification of results with the Analyst software (AB SCIEX, version 1.6.2). The composition of chromatographic conditions, as well as detailed mass spectrometric detection parameters, are listed in Table S5.
as §4

[4] = target: T3, SLC35F2 (Homo sapiens, UniProt Q8IXU6); conditions: SLC35F2; ratio of Vmax over KM
T3 sequence (Q8IXU6 1-374): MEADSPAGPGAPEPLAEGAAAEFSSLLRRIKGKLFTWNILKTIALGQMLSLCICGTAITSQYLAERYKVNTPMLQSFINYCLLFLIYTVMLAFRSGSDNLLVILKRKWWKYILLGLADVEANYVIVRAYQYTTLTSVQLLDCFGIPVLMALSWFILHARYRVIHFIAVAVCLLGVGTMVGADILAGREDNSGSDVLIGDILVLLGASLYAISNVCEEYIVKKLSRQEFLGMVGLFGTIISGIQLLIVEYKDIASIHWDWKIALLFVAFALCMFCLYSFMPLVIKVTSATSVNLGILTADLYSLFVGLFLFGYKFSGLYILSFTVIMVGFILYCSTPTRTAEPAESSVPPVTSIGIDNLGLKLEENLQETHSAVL

[5] = target: T4, SLC35G3 (Homo sapiens, UniProt Q8N808); conditions: ratio of Vmax over KM
[6] = target: T5, SLC35F4 (Homo sapiens, UniProt A4IF30); test: Uptake ratio screen, SLC35F4-overexpressing HEK293 over empty vector cells; type: cell-based; parameters: by amplifying the entire gene-of-interest within the HEK293 genome via a long-range PCR; conditions: 2.5 μM, 2 min
T5 sequence (A4IF30 1-521): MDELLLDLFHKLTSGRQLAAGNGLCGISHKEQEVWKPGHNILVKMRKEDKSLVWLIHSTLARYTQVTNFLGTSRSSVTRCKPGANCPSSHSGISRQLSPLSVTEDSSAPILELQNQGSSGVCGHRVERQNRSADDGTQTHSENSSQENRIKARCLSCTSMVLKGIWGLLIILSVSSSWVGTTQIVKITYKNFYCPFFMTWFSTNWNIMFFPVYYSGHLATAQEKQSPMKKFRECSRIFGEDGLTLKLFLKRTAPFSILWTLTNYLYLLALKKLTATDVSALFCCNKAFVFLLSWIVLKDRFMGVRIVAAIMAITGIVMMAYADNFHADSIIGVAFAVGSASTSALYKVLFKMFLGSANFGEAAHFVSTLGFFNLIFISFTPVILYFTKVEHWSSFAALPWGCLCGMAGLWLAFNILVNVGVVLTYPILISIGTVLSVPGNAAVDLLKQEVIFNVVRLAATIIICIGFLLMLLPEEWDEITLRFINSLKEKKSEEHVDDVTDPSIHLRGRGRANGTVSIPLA
Method: as §1, §2, §5, §4

[7] = target: T6, SLC35E2A (Homo sapiens, UniProt P0CK97); conditions: ratio of Vmax over KM
[8] = target: T6, SLC35E2A; test: Uptake ratio screen, SLC35E2A-overexpressing HEK293 over empty vector cells; type: cell-based; parameters: by amplifying the entire gene-of-interest within the HEK293 genome via a long-range PCR; conditions: 2.5 μM, 2 min
Method: as §1, §2, §3, §4

[9] = target: T4, SLC35G3; test: Uptake ratio screen, SLC35G3-overexpressing HEK293 over empty vector cells; type: cell-based; parameters: by amplifying the entire gene-of-interest within the HEK293 genome via a long-range PCR; conditions: 2.5 μM substrate, 2 min, HEK293
[10] = target: T7, SLC22A15 (Homo sapiens, UniProt Q8IZD6); test: Uptake ratio screen, SLC22A15-overexpressing HEK293 over empty vector cells; type: cell-based; conditions: 2.5 μM (nicotine 10 μM), 2 min
T7 construct: by amplifying the entire gene-of-interest within the HEK293 genome via a long-range PCR
Method: as §1, §2, §5, §4

[11] = target: T8, SLC19A2 (Homo sapiens, UniProt O60779); test: Uptake ratio screen, SLC19A2-overexpressing HEK293 over empty vector cells; type: cell-based; conditions: 2.5 μM, 2 min
T8 construct: expressed in transfected cells
T8 sequence (O60779 1-497): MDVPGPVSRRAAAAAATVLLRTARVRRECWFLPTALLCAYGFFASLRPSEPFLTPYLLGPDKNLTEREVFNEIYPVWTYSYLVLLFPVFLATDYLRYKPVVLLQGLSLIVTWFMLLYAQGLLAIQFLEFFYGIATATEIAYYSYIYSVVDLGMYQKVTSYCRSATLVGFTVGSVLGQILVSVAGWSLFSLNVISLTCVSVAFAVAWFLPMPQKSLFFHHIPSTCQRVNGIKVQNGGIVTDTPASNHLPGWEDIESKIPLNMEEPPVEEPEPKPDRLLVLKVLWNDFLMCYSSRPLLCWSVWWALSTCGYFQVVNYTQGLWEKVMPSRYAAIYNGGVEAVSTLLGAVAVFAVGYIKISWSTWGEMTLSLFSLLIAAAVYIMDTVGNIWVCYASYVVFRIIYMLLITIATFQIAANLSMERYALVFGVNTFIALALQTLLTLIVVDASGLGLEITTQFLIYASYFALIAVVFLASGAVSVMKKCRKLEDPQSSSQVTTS
Method: as §1, §2, §3, §4

T6 sequence (P0CK97 whole entry): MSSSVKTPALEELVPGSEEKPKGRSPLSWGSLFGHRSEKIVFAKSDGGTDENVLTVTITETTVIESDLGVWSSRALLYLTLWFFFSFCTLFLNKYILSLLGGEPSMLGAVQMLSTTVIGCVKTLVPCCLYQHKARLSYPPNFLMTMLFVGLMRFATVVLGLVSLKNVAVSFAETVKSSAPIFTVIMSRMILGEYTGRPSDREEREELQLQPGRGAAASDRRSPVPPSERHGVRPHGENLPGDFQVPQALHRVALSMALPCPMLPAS
T4 sequence (Q8N808 whole entry): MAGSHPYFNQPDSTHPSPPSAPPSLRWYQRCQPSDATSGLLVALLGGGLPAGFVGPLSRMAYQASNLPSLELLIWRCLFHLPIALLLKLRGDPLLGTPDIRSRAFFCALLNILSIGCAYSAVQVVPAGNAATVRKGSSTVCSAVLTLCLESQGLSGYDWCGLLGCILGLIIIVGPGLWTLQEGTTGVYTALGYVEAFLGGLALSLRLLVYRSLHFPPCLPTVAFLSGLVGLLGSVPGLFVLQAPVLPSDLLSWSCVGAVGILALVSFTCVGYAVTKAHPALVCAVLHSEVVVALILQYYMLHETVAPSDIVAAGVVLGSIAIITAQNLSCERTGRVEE
T7 sequence (Q8IZD6 whole entry): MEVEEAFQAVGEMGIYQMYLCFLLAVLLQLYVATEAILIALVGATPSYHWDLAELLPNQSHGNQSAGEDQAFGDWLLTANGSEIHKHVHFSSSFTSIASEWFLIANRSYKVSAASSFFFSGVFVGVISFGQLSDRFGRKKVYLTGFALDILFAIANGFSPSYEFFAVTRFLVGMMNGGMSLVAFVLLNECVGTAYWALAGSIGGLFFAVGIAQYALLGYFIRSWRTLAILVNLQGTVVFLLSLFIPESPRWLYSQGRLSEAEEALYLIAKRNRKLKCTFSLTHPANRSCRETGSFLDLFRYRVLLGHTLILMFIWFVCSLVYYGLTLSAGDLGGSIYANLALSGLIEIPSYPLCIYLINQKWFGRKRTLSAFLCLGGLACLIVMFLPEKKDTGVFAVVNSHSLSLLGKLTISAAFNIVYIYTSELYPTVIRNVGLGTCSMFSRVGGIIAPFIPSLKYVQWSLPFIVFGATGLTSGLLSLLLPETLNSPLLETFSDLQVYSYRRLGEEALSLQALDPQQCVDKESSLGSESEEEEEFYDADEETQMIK
Sequence of SLC38A10 (Q9HBR0 whole entry): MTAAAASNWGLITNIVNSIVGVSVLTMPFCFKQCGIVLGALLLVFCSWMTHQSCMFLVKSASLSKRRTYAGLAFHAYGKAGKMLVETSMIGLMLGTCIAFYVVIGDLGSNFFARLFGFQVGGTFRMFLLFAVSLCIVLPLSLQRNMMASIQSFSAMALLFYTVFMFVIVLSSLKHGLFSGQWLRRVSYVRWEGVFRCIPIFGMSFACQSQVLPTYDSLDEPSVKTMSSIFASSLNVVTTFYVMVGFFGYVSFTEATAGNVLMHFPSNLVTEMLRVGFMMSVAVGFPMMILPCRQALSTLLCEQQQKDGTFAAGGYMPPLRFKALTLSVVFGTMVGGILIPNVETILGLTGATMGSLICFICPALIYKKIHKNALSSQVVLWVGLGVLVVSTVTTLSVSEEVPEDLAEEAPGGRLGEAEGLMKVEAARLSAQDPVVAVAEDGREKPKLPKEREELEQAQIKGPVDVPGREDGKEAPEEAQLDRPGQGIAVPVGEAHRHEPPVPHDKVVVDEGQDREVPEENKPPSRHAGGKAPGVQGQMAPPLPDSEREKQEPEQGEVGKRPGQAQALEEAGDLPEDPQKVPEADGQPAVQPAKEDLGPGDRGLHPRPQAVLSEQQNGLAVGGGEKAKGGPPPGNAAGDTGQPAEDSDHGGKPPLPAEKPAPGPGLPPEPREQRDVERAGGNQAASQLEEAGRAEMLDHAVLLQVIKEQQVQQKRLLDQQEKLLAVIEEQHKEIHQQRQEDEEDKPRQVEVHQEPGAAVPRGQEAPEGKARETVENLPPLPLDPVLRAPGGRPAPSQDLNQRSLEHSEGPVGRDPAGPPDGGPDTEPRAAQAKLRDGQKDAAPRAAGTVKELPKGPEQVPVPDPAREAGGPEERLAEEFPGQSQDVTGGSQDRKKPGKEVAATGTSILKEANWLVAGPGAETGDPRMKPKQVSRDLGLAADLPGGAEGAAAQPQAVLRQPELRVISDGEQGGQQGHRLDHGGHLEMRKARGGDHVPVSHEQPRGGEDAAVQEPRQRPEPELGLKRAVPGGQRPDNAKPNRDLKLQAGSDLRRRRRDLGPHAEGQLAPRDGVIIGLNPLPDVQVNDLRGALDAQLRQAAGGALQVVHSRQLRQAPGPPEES

| SMILES | Uptake by SLC38A10 compared with empty-vector-transfected cells (factor) [1] | Uptake by SLC35E4 (in words) [2] | Uptake by SLC35F5 (in words) [3] | Clint (±SEM) [4] | Clint (±SEM) [5] | Uptake by SLC35F4 (in words) [6] | Clint (±SEM) [7] | Uptake by SLC35E2A (in words) [8] | Uptake data for SLC35G3, mean value (fold-increase over empty vector control) [9] | Uptake by SLC22A15 (in words) [10] | Uptake by SLC19A2 (in words) [11] |
| --- | --- | --- | --- | --- | --- | --- | --- | --- | --- | --- | --- |
| N[C@@H](CCC(=O)O)C(=O)O [glutamic acid] | 1.4 | minor |  |  |  |  |  |  |  |  |  |
| COC(=O)[C@H]1[C@@H](OC(=O)c2ccccc2)C[C@@H]2CC[C@H]1N2C [Cocaine] |  |  | highest uptake rates | 2.58 (±2.11) μl × mg protein^-1 × min^-1 | 1.59 (±0.57) μl × mg protein^-1 × min^-1 | enhanced cell uptake | 4.14 (±1.59) μl × mg protein^-1 × min^-1 | relatively high activity | 2.02 | significantly increased the uptake |  |
| COc1ccc2c3c1O[C@H]1C(=O)CC[C@@]4(O)[C@@H](C2)N(C)CC[C@]314 [Oxycodone] |  |  |  |  |  |  | 3.44 (±1.49) μl × mg protein^-1 × min^-1 | relatively high activity | 1.86 | significantly increased the uptake | enhance cell uptake |
